According to US12195427B2, “MASP-2 inhibitors and methods of use” (priority 2018, dated 2025):
One block for each molecule: values may come before it.

Biological target: MASP-2 CCP2-SP (Homo sapiens (Human), UniProt O00187)
Experiment: MASP-2 co-crystallization, X-ray crystallography and structure analysis (H-bonds, van der Waals contacts);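 for Ligand-pharmacophore element distance, pharmacophore element C2: distance from averaged pharmacophore element to bound ligand; missing value means element absent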;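 for Ligand-pharmacophore element distance, pharmacophore element C3: distance from averaged pharmacophore element to bound ligand; missing value means element absent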;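 for Ligand-pharmacophore element distance, pharmacophore element C4: distance from averaged pharmacophore element to bound ligand; missing value means element absent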;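 for Ligand-pharmacophore element distance, pharmacophore element C5: distance from averaged pharmacophore element to bound ligand; missing value means element absent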
Design: van der Waals contact distance, MASP-2 HIS 483 atom CD2 / van der Waals contact distance, MASP-2 HIS 483 atom NE2 / van der Waals contact distance, SER 654 C to compound atom / van der Waals contact distance, SER 654 O to compound atom / van der Waals contact distance, TRP 655 C to compound atom / van der Waals contact distance, MASP-2 GLY 528 atom CA / van der Waals contact distance TRP 655 atom CZ3 / van der Waals contact distance TRP 655 atom N / van der Waals contact distance TRP 655 atom CE3 / van der Waals contact distance GLY 656 atom C / van der Waals contact distance GLY 656 atom CA / van der Waals contact distance GLY 656 atom O / van der Waals contact distance, MASP-2 TYR 607 atom CD1 / van der Waals contact distance, MASP-2 PRO 606 atom O / d(C3,CA1) / d(CA1,N1)2 / d(H4,O1) / d(H4,O2) / d(O1,O2) / d(CA1,O2) / d(CA6,O1) / d(CA6,O2) / d(CA1,C5) / d(O2,H3) / d(N2,C2) / d(CA5,N2) / d(N2,C4) / d(N2,C6) / d(N2,CA3) / d(N2,O3) / d(O4,H2): unit not given beside the values
Conditions: for Ligand-pharmacophore element distance, pharmacophore element C2 / Ligand-pharmacophore element distance, pharmacophore element C3 / Ligand-pharmacophore element distance, pharmacophore element C4 / Ligand-pharmacophore element distance, pharmacophore element C5 / Ligand-pharmacophore element distance, pharmacophore element C6 / Ligand-pharmacophore element distance, pharmacophore element C7 / Ligand-pharmacophore element distance, pharmacophore element CA1 / Ligand-pharmacophore element distance, pharmacophore element CA2 / Ligand-pharmacophore element distance, pharmacophore element CA3 / Ligand-pharmacophore element distance, pharmacophore element CA4 / Ligand-pharmacophore element distance, pharmacophore element CA5 / Ligand-pharmacophore element distance, pharmacophore element CA6: Table A4-1; for Pharmacophore torsion angle a(O1, O2, N2, CA2): Table A7-2; for Pharmacophore protein distance to MET_658 (first MET_658 column) / Pharmacophore protein distance to MET_658 (second MET_658 column) / Pharmacophore protein distance to GLY_528 / Pharmacophore protein distance to PHE_529 / Pharmacophore protein distance to PRO_608 / Pharmacophore protein distance to SER_611 / Pharmacophore protein distance to TRP_655: Table A8-6, nearest protein atom in cell to the left; for Pharmacophore protein distance to MET_658 (first MET_658 column): 6th residue column; for Pharmacophore protein distance to MET_658 (second MET_658 column): 9th residue column; for Pharmacophore protein distance to TRP_655: pharmacophore elements C6, CA3, O3, H1
Summary of the method: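 Contacts and H-bonds come from partially refined soaked-crystal structures of recombinant human CCP2-SP made in E. coli, solved by molecular replacement against 1Q3X fragments. Where several ligand poses appeared, only one was analysed; listed nonbonded contacts may include possible H-bond pairings.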

[1] = Table A5-1 pharmacophore: distance between elements, S2/S1 region
[2] = Table A5-2 pharmacophore distance, S3/S4 region
[3] = Table A7-1, between pharmacophore elements of the bound compound
[4] = between pharmacophore elements of the bound compound

Chain of MASP-2 CCP2-SP (O00187 445-686): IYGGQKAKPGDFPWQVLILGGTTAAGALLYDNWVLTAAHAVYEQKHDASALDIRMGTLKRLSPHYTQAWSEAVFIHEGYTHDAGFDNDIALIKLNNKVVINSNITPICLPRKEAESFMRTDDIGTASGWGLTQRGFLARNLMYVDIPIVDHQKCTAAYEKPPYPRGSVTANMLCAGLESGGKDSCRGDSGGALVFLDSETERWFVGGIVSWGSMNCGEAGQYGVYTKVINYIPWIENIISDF
Chain of MASP-2 CCP2-SP (O00187 364-432 partner): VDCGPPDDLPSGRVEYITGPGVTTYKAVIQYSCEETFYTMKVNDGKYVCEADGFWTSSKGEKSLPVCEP

SMILES: C[C@H](NC(=O)[C@H]1C[C@@H](c2ccccc2)CN1)C(=O)NCc1ccc2c(N)nccc2c1.Cl.Cl [1089_A]
Ligand-pharmacophore element distance, pharmacophore element C2: 0
Ligand-pharmacophore element distance, pharmacophore element C3: 0
Ligand-pharmacophore element distance, pharmacophore element C4: 0
Ligand-pharmacophore element distance, pharmacophore element C5: 0
Ligand-pharmacophore element distance, pharmacophore element C6: 0
Ligand-pharmacophore element distance, pharmacophore element C7: 0
Ligand-pharmacophore element distance, pharmacophore element CA1: 1
Ligand-pharmacophore element distance, pharmacophore element CA2: 0.89
Ligand-pharmacophore element distance, pharmacophore element CA3: 0
Ligand-pharmacophore element distance, pharmacophore element CA4: 0
Ligand-pharmacophore element distance, pharmacophore element CA5: 0
Ligand-pharmacophore element distance, pharmacophore element CA6: 0
d(CA1,O1) [1]: 5.75
d(CA1,O2) [1]: 5.19
d(H4,O1) [1]: 3.13
d(H4,O2) [1]: 3.70
d(O1,O2) [1]: 3.34
d(N2,CA2) [2]: 5.10
d(O2,H3) [2]: 5.94
d(O2,N2) [2]: 2.66
a(CA1, O1, O2) (Table A6-1 pharmacophore angle): 98.23
a(O1, O2, H4) (Table A6-1 pharmacophore angle): 122.16
a(O1, O2, H3) (Table A6-2 pharmacophore angle): 153.00
a(O1, O2, N2) (Table A6-2 pharmacophore angle): 141.72
a(O2, N2, CA2) (Table A6-2 pharmacophore angle): 154.37
Pharmacophore torsion angle a(H4, O1, O2, H3) [3]: 88.95
Pharmacophore torsion angle a(H4, O1, O2, N2) [3]: −175.67
Pharmacophore torsion angle a(O1, H4, O2, CA1) [3]: −95.88
Pharmacophore torsion angle a(O1, O2, N2, CA2) [4]: 137.41
Pharmacophore protein distance to MET_658 (first MET_658 column): 2.61
Pharmacophore protein distance to MET_658 (second MET_658 column): 3.31
Pharmacophore protein distance to GLY_528: 3.59
Pharmacophore protein distance to PHE_529: 2.81
Pharmacophore protein distance to PRO_608: 3.90
Pharmacophore protein distance to SER_611: 2.79
Pharmacophore protein distance to TRP_655: 3.57

SMILES: C[C@H](NC(=O)[C@H](N)CCCc1ccccc1)C(=O)NCc1ccc(C(=N)N)cc1.Cl.Cl [1042_2]
Ligand-pharmacophore element distance, pharmacophore element C2: 1.33
Ligand-pharmacophore element distance, pharmacophore element C3: 0
Ligand-pharmacophore element distance, pharmacophore element C4: 0
Ligand-pharmacophore element distance, pharmacophore element C5: 0
Ligand-pharmacophore element distance, pharmacophore element C6: 0
Ligand-pharmacophore element distance, pharmacophore element C7: 0
Ligand-pharmacophore element distance, pharmacophore element CA1: 0.5
Ligand-pharmacophore element distance, pharmacophore element CA2: 0.72
Ligand-pharmacophore element distance, pharmacophore element CA3: 0
Ligand-pharmacophore element distance, pharmacophore element CA4: 0
Ligand-pharmacophore element distance, pharmacophore element CA5: 0
Ligand-pharmacophore element distance, pharmacophore element CA6: 0
Ligand-pharmacophore element distance, pharmacophore element H1 (Table A4-2, element H1): 0
Ligand-pharmacophore element distance, pharmacophore element H2 (Table A4-2, element H2): 0
Ligand-pharmacophore element distance, pharmacophore element H3 (Table A4-2, element H3): 5.3
Ligand-pharmacophore element distance, pharmacophore element H4 (Table A4-2, element H4): 3.52
Ligand-pharmacophore element distance, pharmacophore element N1 (Table A4-2, element N1): 1.61
Ligand-pharmacophore element distance, pharmacophore element N2 (Table A4-2, element N2): 1.72
Ligand-pharmacophore element distance, pharmacophore element O1 (Table A4-2, element O1): 3.1
Ligand-pharmacophore element distance, pharmacophore element O2 (Table A4-2, element O2): 0.75
Ligand-pharmacophore element distance, pharmacophore element O3 (Table A4-2, element O3): 0
Ligand-pharmacophore element distance, pharmacophore element O4 (Table A4-2, element O4): 0
d(CA1,N1) [1]: 3.61
d(CA1,O1) [1]: 4.47
d(CA1,O2) [1]: 4.74
d(H4,O1) [1]: 4.02
d(H4,O2) [1]: 4.01
d(O1,O2) [1]: 3.46
d(N2,C2) [2]: 4.38
d(N2,CA2) [2]: 7.44
d(O2,H3) [2]: 5.89
d(O2,N2) [2]: 2.86
a(CA1, O1, O2) (Table A6-1 pharmacophore angle): 116.12
a(O1, O2, H4) (Table A6-1 pharmacophore angle): 128.91
A(N1, CA1, O1) a) (Table A6-1 pharmacophore angle, all compounds with protonatable center N1 except Methyl-amino-pyridine): 164.17
a(O1, O2, H3) (Table A6-2 pharmacophore angle): 152.56
a(O1, O2, N2) (Table A6-2 pharmacophore angle): 148.96
a(O2, N2, C2) (Table A6-2 pharmacophore angle): 139.99
a(O2, N2, CA2) (Table A6-2 pharmacophore angle): 158.67
Pharmacophore torsion angle a(H4, O1, O2, H3) [3]: −9.33
Pharmacophore torsion angle a(H4, O1, O2, N2) [3]: 44.33
Pharmacophore torsion angle a(N1, CA1, O2, H4) [3]: 69.40
Pharmacophore torsion angle a(O1, H4, O2, CA1) [3]: 68.80
Pharmacophore torsion angle a(O1, O2, N2, C2) [3]: 151.54
Pharmacophore torsion angle a(O1, O2, N2, CA2) [4]: 159.77
Pharmacophore protein distance to MET_658 (first MET_658 column): 1.07
Pharmacophore protein distance to MET_658 (second MET_658 column): 4.17
Pharmacophore protein distance to GLY_528: 4.01
Pharmacophore protein distance to PHE_529: 3.09
Pharmacophore protein distance to PRO_608: 3.74
Pharmacophore protein distance to SER_611: 2.54
Pharmacophore protein distance to TRP_655: 3.27

H-bond distance to MASP-2 ASP 627 atom OD2 (Table A1 (H-Bonds), ASP 627 OD2): 3.15
H-bond distance to MASP-2 GLY 656 atom N (Table A1 (H-Bonds), GLY 656 N): 3.15
H-bond distance to MASP-2 GLY 656 atom O (Table A1 (H-Bonds), GLY 656 O): 2.77
H-bond distance to MASP-2 SER 628 atom O (Table A1 (H-Bonds), SER 628 O): 3.15
H-bond distance to MASP-2 SER 654 atom O (Table A1 (H-Bonds), SER 654 O): 3.08
H-bond distance to MASP-2 SER 657 atom O (Table A1 (H-Bonds), SER 657 O): 2.88
van der Waals contact distance, MASP-2 HIS 483 atom CD2 (Table A2-1): 3.71
van der Waals contact distance, MASP-2 HIS 483 atom NE2 (Table A2-1): 3.59
van der Waals contact distance, MASP-2 PHE 529 atom CD2 (Table A2-3): 3.8
van der Waals contact distance, MASP-2 amino acid atom to compound atom (Table A2-6: SER 611 (CB, OG), ASP 627 (CG, OD1, OD2), SER 628 (C, CA)): 3.71
van der Waals contact distance, MASP-2 amino acid atom to compound atom (Table A2-7: SER 628 (CB, O, OG)): 3.56
van der Waals contact distance, MASP-2 amino acid atom to compound atom (Table A2-9, ARG 630, AA atoms CG, CZ): 3.86
van der Waals contact distance, MASP-2 amino acid atom to compound atom (Table A2-9 second part, ARG 630, AA atoms N, NE, NH1): 3.8
van der Waals contact distance, VAL 653 CG1 to compound atom (Table A2-11): 3.35
van der Waals contact distance, SER 654 O to compound atom (Table A2-12): 3.87
van der Waals contact distance, TRP 655 CA to compound atom (Table A2-12): 3.29
van der Waals contact distance TRP 655 atom CE3 (Table A2-13, MASP-2 TRP 655 CE3, compound atom in line below): 3.89
van der Waals contact distance TRP 655 atom CZ3 (Table A2-13, MASP-2 TRP 655 CZ3): 3.86
Ligand-pharmacophore element distance, pharmacophore element C2: 0
Ligand-pharmacophore element distance, pharmacophore element C3: 0.13
Ligand-pharmacophore element distance, pharmacophore element C4: 0
Ligand-pharmacophore element distance, pharmacophore element C5: 0
Ligand-pharmacophore element distance, pharmacophore element C6: 0
Ligand-pharmacophore element distance, pharmacophore element C7: 0
Ligand-pharmacophore element distance, pharmacophore element CA1: 0.5
Ligand-pharmacophore element distance, pharmacophore element CA2: 0.57
Ligand-pharmacophore element distance, pharmacophore element CA3: 0
Ligand-pharmacophore element distance, pharmacophore element CA4: 0
Ligand-pharmacophore element distance, pharmacophore element CA5: 3.27
Ligand-pharmacophore element distance, pharmacophore element CA6: 0
d(C3,CA1) [1]: 2.85
d(CA1,N1)2 [1]: 1.39
d(CA1,O1) [1]: 4.35
d(CA1,O2) [1]: 5.37
d(H4,O1) [1]: 4.37
d(H4,O2) [1]: 5.63
d(O1,O2) [1]: 4.72
d(O2,H3) [2]: 2.68
a(C3, CA1, O1) (Table A6-1 pharmacophore angle): 149.67
a(CA1, O1, O2) (Table A6-1 pharmacophore angle): 129.48
a(O1, O2, H4) (Table A6-1 pharmacophore angle): 125.36
a(N1, CA1, O1) b) (Table A6-1 pharmacophore angle, Methyl-amino-pyridine compounds): 173.97
a(O1, O2, H3) (Table A6-2 pharmacophore angle): 107.78
Pharmacophore torsion angle a(C3, CA1, O1, H4) [3]: 23.21
Pharmacophore torsion angle a(H4, O1, O2, H3) [3]: 42.45
Pharmacophore torsion angle a(N1, CA1, O1, H4) [3]: 1.25
Pharmacophore torsion angle a(O1, H4, O2, CA1) [3]: −85.54
SMILES: Cc1nc(N)ccc1CNC(=O)[C@H](C)NC(=O)c1cc(Cc2ccccc2)n[nH]1 [compound 1367, (S)—N-(1-(((6-Amino-2-methylpyridin-3-yl)methyl)amino)-1-oxopropan-2-yl)-3-benzyl-1H-pyrazole-5-carboxamide]
